{
  "source": "PubChem BioAssay AID330",
  "about": "(DTP/NCI, 2004)",
  "test_system": "P388 leukemia ip, CD2F1 mice, survival T/C",
  "assay": "NCI In Vivo Anticancer Drug Screen. Data for tumor model P388 Leukemia (intraperitoneal) in CD2F1 (CDF1) mice",
  "settings": "endpoint: median survival time, higher = longer survival",
  "how_it_was_run": "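Mice carrying the transplanted tumor received test compound or vehicle. Survival was recorded in each group, and the value is the treated-group measurement divided by that of the vehicle-treated control group.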",
  "key": {"[1]": {"settings": "dose: 50.0 mg/kg/injection, schedule: Q01DX005 (ip), vehicle: saline with Tween-80"}, "[2]": {"settings": "dose: 100.0 mg/kg/injection, schedule: Q01DX005 (ip), vehicle: saline with Tween-80"}, "[3]": {"settings": "dose: 12.5 mg/kg/injection, schedule: Q01DX005 (ip), vehicle: saline with Tween-80"}},
  "note": "Several values for one entry are separate records, joined by “and”; a condition that tells them apart may be missing. Equal values may be shown once. Toxic doses and inconclusive results are not listed.",
  "data": [
    {"molecule": "COc1ccc2nc3cc(Cl)ccc3c(Nc3ccc(O)c(CN(CCCl)CCCl)c3)c2c1", "values": [
      {"measurement": "T/C", "setting": "dose: 0.06 mg/kg/injection, schedule: Q01DX009 (ip), vehicle: saline with Tween-80", "value": "98 % of control"},
      {"measurement": "T/C", "setting": "dose: 0.09 mg/kg/injection, schedule: Q01DX009 (ip), vehicle: saline with Tween-80", "value": "89 % of control"},
      {"measurement": "T/C", "setting": "dose: 0.44 mg/kg/injection, schedule: Q01DX009 (ip), vehicle: saline", "value": "150 % of control"},
      {"measurement": "T/C", "setting": "dose: 0.6 mg/kg/injection, schedule: Q01DX009 (ip), vehicle: saline with Tween-80", "value": "154 % of control"},
      {"measurement": "T/C", "setting": "dose: 0.66 mg/kg/injection, schedule: Q01DX009 (ip), vehicle: saline", "value": "160 % of control"},
      {"measurement": "T/C", "setting": "dose: 1.0 mg/kg/injection, schedule: Q01DX009 (ip), vehicle: saline", "value": "155 % of control"},
      {"measurement": "T/C", "setting": "dose: 1.5 mg/kg/injection, schedule: Q01DX009 (ip), vehicle: saline", "value": "175 % of control"}
    ]},
    {"molecule": "Cc1cc(Cl)c2c(N(C)C)cccc2n1", "values": [
      {"measurement": "T/C", "setting": "dose: 50.0 mg/kg/injection, schedule: Q01DX009 (ip), vehicle: acid diluted with saline", "value": "106 % of control"},
      {"measurement": "T/C", "setting": "dose: 100.0 mg/kg/injection, schedule: Q01DX009 (ip), vehicle: acid diluted with saline", "value": "93 % of control"}
    ]},
    {"molecule": "COc1cc(Cc2ccc3c(c2)OCO3)cc(OC)c1OC", "values": [
      {"measurement": "T/C", "setting": "dose: 100.0 mg/kg/injection, schedule: Q01DX001 (ip), vehicle: saline", "value": "102 % of control"},
      {"measurement": "T/C", "setting": "dose: 200.0 mg/kg/injection, schedule: Q01DX001 (ip), vehicle: saline", "value": "102 % of control"},
      {"measurement": "T/C", "setting": "dose: 400.0 mg/kg/injection, schedule: Q01DX001 (ip), vehicle: saline", "value": "99 % of control"}
    ]},
    {"molecule": "N#CC1=CN=C2C=CC=C3N=C(C(Cl)(Cl)Cl)N=C1N32", "values": [
      {"measurement": "T/C", "setting": "dose: 15.0 mg/kg/injection, schedule: Q01DX005 (ip), vehicle: Klucel + Tween-80", "value": "92 % of control"},
      {"measurement": "T/C", "setting": "dose: 30.0 mg/kg/injection, schedule: Q01DX005 (ip), vehicle: Klucel + Tween-80", "value": "87 % of control"},
      {"measurement": "T/C", "setting": "dose: 60.0 mg/kg/injection, schedule: Q01DX005 (ip), vehicle: Klucel + Tween-80", "value": "93 % of control"}
    ]},
    {"molecule": "CC1OC1C(=O)C1(O)C(C)C(O)C23OC2(C(O)c2c(O)cccc2C3=O)C1O", "note": "(stereo not drawn)", "values": [
      {"measurement": "T/C", "setting": "dose: 1.0 mg/kg/injection, schedule: Q01DX009 (ip), vehicle: Klucel (hydroxypropylcellulose) (HPC)", "value": "104 % of control and 118 % of control"},
      {"measurement": "T/C", "setting": "dose: 2.0 mg/kg/injection, schedule: Q01DX009 (ip), vehicle: Klucel (hydroxypropylcellulose) (HPC)", "value": "154 % of control"},
      {"measurement": "T/C", "setting": "dose: 4.0 mg/kg/injection, schedule: Q01DX009 (ip), vehicle: Klucel (hydroxypropylcellulose) (HPC)", "value": "121 % of control"}
    ]},
    {"molecule": "COC1(C)OC23C(=O)N(C)C(=O)N(C)C2(O1)N(C(C)=O)C(=O)N3C", "note": "(stereo not drawn)", "values": [
      {"measurement": "T/C", "setting": "[1]", "value": "100 % of control"},
      {"measurement": "T/C", "setting": "[2]", "value": "105 % of control"},
      {"measurement": "T/C", "setting": "dose: 200.0 mg/kg/injection, schedule: Q01DX005 (ip), vehicle: saline with Tween-80", "value": "98 % of control"}
    ]},
    {"molecule": "O=C(NC(CCS(=O)(=O)n1ccnc1)C(=O)OCc1ccccc1)OCc1ccccc1", "note": "(stereo not drawn)", "values": [
      {"measurement": "T/C", "setting": "dose: 12.5 mg/kg/injection, schedule: Q01DX009 (ip), vehicle: other", "value": "97 % of control"},
      {"measurement": "T/C", "setting": "dose: 25.0 mg/kg/injection, schedule: Q01DX009 (ip), vehicle: other", "value": "104 % of control"},
      {"measurement": "T/C", "setting": "dose: 50.0 mg/kg/injection, schedule: Q01DX009 (ip), vehicle: other", "value": "106 % of control"},
      {"measurement": "T/C", "setting": "dose: 100.0 mg/kg/injection, schedule: Q01DX009 (ip), vehicle: other", "value": "97 % of control"},
      {"measurement": "T/C", "setting": "dose: 200.0 mg/kg/injection, schedule: Q01DX009 (ip), vehicle: other", "value": "90 % of control"}
    ]},
    {"molecule": "O=[N+]([O-])c1ccc(/C=C/[P+](c2ccccc2)(c2ccccc2)c2ccccc2)o1", "values": [
      {"measurement": "T/C", "setting": "dose: 0.78 mg/kg/injection, schedule: Q01DX009 (ip), vehicle: saline", "value": "103 % of control"},
      {"measurement": "T/C", "setting": "dose: 1.56 mg/kg/injection, schedule: Q01DX009 (ip), vehicle: saline", "value": "98 % of control"},
      {"measurement": "T/C", "setting": "dose: 3.12 mg/kg/injection, schedule: Q01DX009 (ip), vehicle: saline", "value": "101 % of control"}
    ]},
    {"molecule": "COc1cc(NC(C)CCCNC(C)C)c2ncccc2c1", "note": "(stereo not drawn)", "values": [
      {"measurement": "T/C", "setting": "dose: 6.25 mg/kg/injection, schedule: Q01DX005 (ip), vehicle: saline with Tween-80", "value": "100 % of control"},
      {"measurement": "T/C", "setting": "[3]", "value": "100 % of control"}
    ]},
    {"molecule": "O=C(O)CC[P+](c1ccccc1)(c1ccccc1)c1ccccc1", "values": [
      {"measurement": "T/C", "setting": "dose: 25.0 mg/kg/injection, schedule: Q01DX009 (ip), vehicle: water", "value": "105 % of control"},
      {"measurement": "T/C", "setting": "dose: 50.0 mg/kg/injection, schedule: Q01DX009 (ip), vehicle: water", "value": "102 % of control"},
      {"measurement": "T/C", "setting": "dose: 100.0 mg/kg/injection, schedule: Q01DX009 (ip), vehicle: water", "value": "105 % of control"},
      {"measurement": "T/C", "setting": "dose: 200.0 mg/kg/injection, schedule: Q01DX009 (ip), vehicle: water", "value": "95 % of control"},
      {"measurement": "T/C", "setting": "dose: 400.0 mg/kg/injection, schedule: Q01DX009 (ip), vehicle: water", "value": "94 % of control"}
    ]},
    {"molecule": "C(#Cc1ccccc1)/C=C/C(=C\\c1ccccc1)c1ccccc1", "values": [
      {"measurement": "T/C", "setting": "[3]", "value": "101 % of control"},
      {"measurement": "T/C", "setting": "dose: 25.0 mg/kg/injection, schedule: Q01DX005 (ip), vehicle: saline with Tween-80", "value": "102 % of control"},
      {"measurement": "T/C", "setting": "[1]", "value": "101 % of control"},
      {"measurement": "T/C", "setting": "[2]", "value": "100 % of control"}
    ]},
    {"molecule": "O=C1CC(C2OCOC3COCOC32)CC(=O)N1", "note": "(stereo not drawn)", "values": [
      {"measurement": "T/C", "setting": "dose: 60.0 mg/kg/injection, schedule: Q01DX005 (ip), vehicle: Klucel (hydroxypropylcellulose) (HPC)", "value": "111 % of control"},
      {"measurement": "T/C", "setting": "dose: 120.0 mg/kg/injection, schedule: Q01DX005 (ip), vehicle: Klucel (hydroxypropylcellulose) (HPC)", "value": "109 % of control"},
      {"measurement": "T/C", "setting": "dose: 240.0 mg/kg/injection, schedule: Q01DX005 (ip), vehicle: Klucel (hydroxypropylcellulose) (HPC)", "value": "100 % of control"}
    ]}
  ]
}
